Experimental data taken from patent EP0758883B1, “FUSOGENIC LIPOSOMES AND METHODS OF MAKING AND USING SAME” (THE LIPOSOME COMPANY, INC., priority 1994, dated 1995).

Columns and labels:
[1] = Lipid-mixing fusion assay (RET fluorescent probe dilution), EPC/Chol liposomes; settings: plateau after dissipation of the pH gradient with 100 mM ammonium acetate, complete mixing would give 80%
Experimental: Fusion was monitored by the decrease in resonance energy transfer (RET) resulting from fluorescent probe dilution, as described by Struck et al. (1981). […] The external buffer was 20 mM HEPES (150 mM NaCl, pH 7.5). […] Labeled and unlabeled liposomes were mixed in a 1:3 ratio, and diluted to 0.2 mM total lipid. External buffer was exchanged for 300 mM sucrose, 1 mM citrate, pH 4.0, on Sephadex G-25 columns before diluting preparations to 10 mM lipid. For fusion assays, 20 µl of fluorescently labeled liposomes, and 60 µl unlabeled liposomes, were added to 3.92 ml of 20 mM HEPES, 150 mM NaCl, pH 7.5. After 5 min. of incubation at room temperature, a 3 ml aliquot was added to a cuvette, and the fluorescence was monitored over 5 minutes. Excitation and emission wavelengths were 465 and 535 nm, respectively, and an emission 530 nm cutoff filter was used. […] The percent change in fluorescence (% F/ Fmax) was determined by assigning zero fluorescence (F0) to a trace with no ammonium acetate added and Fmax to a trace measured after adding 100 µl of 25 mM Triton X-100, so that: % ( F/ Fmax ) = 100 x ((F-F0 )/(Fmax -F0 )) [formula] […]
(§1) Membrane fusion was monitored by a loss in RET between the fluorescently labeled lipids NBD-PE and Rh-PE. When liposomes containing both of these labels fuse with unlabeled liposomes, the resulting dilution of the fluorescent probes gives Increased fluorescence for NBD-PE.

[2] = Lipid-mixing fusion assay (RET fluorescent probe dilution), EPC/DOPE/Chol liposomes; settings: for fusogenic capacity (fusion rate): 5 mole % of each aminolipid in EPC/DOPE/Chol (35:20:45) liposomes, Figure 9, in words
Experimental: Fusion was monitored by the decrease in resonance energy transfer (RET) resulting from fluorescent probe dilution, as described by Struck et al. (1981). […] The external buffer was 20 mM HEPES (150 mM NaCl, pH 7.5). […] Labeled and unlabeled liposomes were mixed in a 1:3 ratio, and diluted to 0.2 mM total lipid. External buffer was exchanged for 300 mM sucrose, 1 mM citrate, pH 4.0, on Sephadex G-25 columns before diluting preparations to 10 mM lipid. For fusion assays, 20 µl of fluorescently labeled liposomes, and 60 µl unlabeled liposomes, were added to 3.92 ml of 20 mM HEPES, 150 mM NaCl, pH 7.5. After 5 min. of incubation at room temperature, a 3 ml aliquot was added to a cuvette, and the fluorescence was monitored over 5 minutes. Excitation and emission wavelengths were 465 and 535 nm, respectively, and an emission 530 nm cutoff filter was used. To dissipate the gradient and induce fusion, ammonium acetate was added to a final concentration of 100 mM at 30 seconds. The percent change in fluorescence (% F/ Fmax) was determined by assigning zero fluorescence (F0) to a trace with no ammonium acetate added and Fmax to a trace measured after adding 100 µl of 25 mM Triton X-100, so that: % ( F/ Fmax ) = 100 x ((F-F0 )/(Fmax -F0 )) [formula]
To study the effect of aminolipid structure on the fusion of EPC/Chol/DOPE liposomes (35:20:45) liposomes were prepared with 5 mole % of the indicated aminolipid (AL-1-AL-6), an internal pH 4.0, 300 mM sodium citrate buffer, and an external 20 mM HEPES buffer (150 mM NaCl, pH 7.5). Fusion assays were carried out as described above.
as §1

[3] = Lipid asymmetry (transbilayer distribution) by TNS fluorescence; assay type: physicochemical; settings: 10 mole % in EPC/Chol (55:45), internal pH 4, external pH 7.5; after four minutes
[4] = TNS fluorescence titration for ionizable lipid pKa in liposomal bilayers; settings: aminolipid incorporated into liposomes; for % Charged at pH 7.5: from TNS fluorescence titrations

| Structure (SMILES) | ΔF/ΔFmax ([1]; 10 mole % AL-1 in EPC/Chol (55:45)) [%] | ΔF/ΔFmax ([1]; 20 mole % AL-1 in EPC/Chol (55:45)) [%] | ΔF/ΔFmax ([2]; 10 mole % AL-1 in EPC/DOPE/Chol (30:25:45), over 5 minutes after dissipation of the pH gradient) [%] | ΔF/ΔFmax ([2]; 10 mole % AL-1 in EPC/DOPE/Chol (35:20:45), after 5 minutes) | ΔF/ΔFmax ([2]; about 5 mole % AL-1 in EPC/DOPE/Chol (35:20:45), over the first 5 minutes after dissipation of the pH gradient) | aminolipid moved to the inner monolayer [3] | fraction of neutral species at pH 7.5 [4] [%] | % Charged at pH 7.5 [4] [%] | fusogenic capacity (fusion rate) [2] |
| --- | --- | --- | --- | --- | --- | --- | --- | --- | --- |
| CCCCCCCC/C=C\CCCCCCCC(=O)OCC(CN(C)C)OC(=O)CCCCCCC/C=C\CCCCCCCC (racemic) [AL-1, 1-N,N-dimethylamino dioleoyl propane] | ~3 | ~3 | ~10 | over 5% | greater than 10% | virtually all | 11 | 11 |  |
| CCCCCCCC/C=C\CCCCCCCC(=O)OCC(O)CN(C)C (racemic) [AL-2, ±-1-oleoyl-2-hydroxy-3-N,N-dimethylamino propane] |  |  |  |  |  |  |  | 54 | little Increase in liposome fusion |
| CCCCCCCC/C=C\CCCCCCCC(=O)OCC(CN(C)C)OC(C)=O (racemic) [AL-3] |  |  |  |  |  |  | 16 | 16 | substantially greater fusion rate |
| CCCCCCCC/C=C\CCCCCCCC(=O)OCC(CN(C)C)OC(=O)CCC (racemic) [AL-4] |  |  |  |  |  |  |  | 13 | further increases in the fusion rate |
| CCCCCCCC/C=C\CCCCCCCC(=O)OCC(CN(C)C)OC(=O)CCCCCCCCC (racemic) [AL-5] |  |  |  |  |  |  |  | 14 | further increases in the fusion rate |
| CCCCCCCCCC(=O)OCC(CN(C)C)OC(=O)CCCCCCCCC (racemic) [AL-6, ±-1,2-didecanoyl-1-N,N-dimethylamino propane] |  |  |  |  |  |  |  | 17 | only limited mixing |
